Measurements published in patent publication US7147824B2, “Method for suppressing growth of mycobacteria in metalworking fluids” (priority 2003, dated 2006).
Converted amounts (≈) assume the structure as drawn.

System: Mycobacterium immunogenum MWF isolates
Assay: Anti-mycobacterial activity in MWF, plating on Mycoagar
Format: cell-based
Conditions: MCC added to a MWF 24 hours after the isothiazolones had been added
Procedure: The MWFs selected were fluids which had evidence of CMIT incompatibility. The MCC was added to the MWFs 24 hours before the CMIT was added; 24 hours after the CMIT was added; or in a mixture with the CMIT. This was done for each concentration of CMIT (7.5 and 15 ppm) and MCC (250 and 500 ppm). Controls consisted of no biocide and CMIT at 7.5 and 15 ppm. Stability of the isothiazolones was evaluated at time 0 and then after 24 and 48 hours by standard methods for detecting isothiazones. Plating for mycobacteria kill was performed with aliquots from time 0 and 48 hours.
Plating was performed on 100 mm petri dishes containing 20 mL of an appropriate agar. Two different formulations, both based on Plate Count Agar (standard methods for waste and waste water). The medium for recovery of Mycobacterium immunogenum is nutritionally supplemented with TWEEN 80 and glycerin and has three antibiotics (cyclohexamide, chloramphenicol, and gentimicin) to inhibit fungi and unwanted bacteria. This medium with agar is referred to herein as “Mycoagar.”
The MWFs selected were fluids which had evidence of CMIT incompatibility. The MCC was added to the MWFs 24 hours before the CMIT was added at 15 ppm. Stability was evaluated at time 0 and then after 24 and 48 hours by chemical analysis. Plating for mycobacteria kill was performed with aliquots from time O and after 48 hours.

SMILES	suppressing growth of the Mycobacterium immunogenum genotype
O=C([O-])CC(O)(CC(=O)[O-])C(=O)O.[Cu+2] [MCC, disodium monocopper (II) citrate]	ineffective

System: Mycobacterium immunogenum isolate
Assay: not given
Conditions: Mycobacterium immunogenum isolate from MWF (ATCC 700506); cited from earlier work

SMILES	MIC
NCC[C@H](O)C(=O)N[C@@H]1C[C@H](N)[C@@H](O[C@H]2O[C@H](CN)[C@@H](O)[C@H](O)[C@H]2O)[C@H](O)[C@H]1O[C@H]1O[C@H](CO)[C@@H](O)[C@H](N)[C@H]1O [amikacin]	128 µg/mL (≈ 219 µM)
CO[C@@]1(NC(=O)CSCC#N)C(=O)N2C(C(=O)O)=C(CSc3nnnn3C)CS[C@@H]21 [cefinetazole]	64 µg/mL (≈ 136 µM)
CO[C@@]1(NC(=O)Cc2cccs2)C(=O)N2C(C(=O)O)=C(COC(N)=O)CS[C@@H]21 [cefoxitin]	64 µg/mL (≈ 150 µM)
C[C@H]1c2cccc(O)c2C(=O)C2=C(O)[C@]3(O)C(=O)C(C(N)=O)=C(O)[C@@H](N(C)C)[C@@H]3[C@@H](O)[C@@H]21 [doxyxycline]	> 128 µg/mL
Cc1cc(NS(=O)(=O)c2ccc(N)cc2)no1 [sulfamethoxazole]	> 64 µg/mL
